In patent US12090128B2, “Dispersible formulations of n-((r)-2,3-dihydroxypropoxy)-3,4-difluoro-2-(2-fluoro-4-iodo-phenylamino)-benazmide and uses thereof” (SpringWorks Therapeutics, Inc., priority 2021, dated 2024):

Assay: Storage stability of crystalline Form IV by XRPD and/or DSC
Type: physicochemical
Description: FIG. 3A is an XRPD corresponding to essentially pure Form IV of N—((R)-2,3-dihydroxypropoxy)-3,4-difluoro-2-(2-fluoro-4-iodo-phenylamino)-benzamide after storage for 68 months after production at 25° C. and ≤65% relative humidity.
FIG. 3B is an XRPD corresponding to essentially pure Form IV of N—((R)-2,3-dihydroxypropoxy)-3,4-difluoro-2-(2-fluoro-4-iodo-phenylamino)-benzamide after storage for 140 months after production at 25° C. and ≤65% relative humidity.
In some aspects, the XRPD pattern is generated using a PANALYTICAL® X'Pert Pro diffractometer using Ni-filtered Cu Kα (45 kV/40 mA) radiation and a step size of 0.03° 2θ with a X′CELERATOR® Real Time Multi-Strip detector, configured (a) on the incidental beam side as follows: variable divergence slits (10 mm irradiated length), 0.04 rad Soller slits, fixed anti-scatter slit (0.50°), and 10 mm beam mask, and (b) on the diffracted beam side as follows: variable anti-scatter slit (10 mm observed length) and 0.04 rad Soller slit or a BRUKER® D8® ADVANCE™ system using Cu Kα (40 kV/40 mA) radiation and a step size of 0.03° 2θ with a LYNXEYE™ detector, configured (a) on the incidental beam side as follows: Goebel mirror, mirror exit slit (0.2 mm), 2.5° Soller slit, beam knife, and (b) on the diffracted beam side as follows: anti-scatter slit (8 mm) and 2.5° Soller slit; wherein samples are mounted flat on zero-background Si wafers. […]

With `O=C(NOC[C@H](O)CO)c1ccc(F)c(F)c1Nc1ccc(I)cc1F` [essentially pure Form IV, N—((R)-2,3-dihydroxypropoxy)-3,4-difluoro-2-(2-fluoro-4-iodo-phenylamino)-benzamide] the “XRPD pattern and/or DSC profile after storage” value (storage for 68 months at standard warehouse conditions (15° C.-25° C. and ≤65% relative humidity), FIG. 3A) was “substantially unchanged” and the “XRPD pattern and/or DSC profile after storage” value (storage for ≥140 months at standard warehouse conditions (15° C.-25° C. and ≤65% relative humidity), FIG. 3B) was “substantially unchanged”.
